Experimental data published in paper PMC5877551, “Structure-Activity Relationships of Thiazolyl Resorcinols, Potent and Selective Inhibitors of Human Tyrosinase” (International Journal of Molecular Sciences, 2018).

Molecular target: T1, human tyrosinase (hTyr) (Homo sapiens, UniProt P14679)
T1 sequence (P14679 19-476 limits assumed): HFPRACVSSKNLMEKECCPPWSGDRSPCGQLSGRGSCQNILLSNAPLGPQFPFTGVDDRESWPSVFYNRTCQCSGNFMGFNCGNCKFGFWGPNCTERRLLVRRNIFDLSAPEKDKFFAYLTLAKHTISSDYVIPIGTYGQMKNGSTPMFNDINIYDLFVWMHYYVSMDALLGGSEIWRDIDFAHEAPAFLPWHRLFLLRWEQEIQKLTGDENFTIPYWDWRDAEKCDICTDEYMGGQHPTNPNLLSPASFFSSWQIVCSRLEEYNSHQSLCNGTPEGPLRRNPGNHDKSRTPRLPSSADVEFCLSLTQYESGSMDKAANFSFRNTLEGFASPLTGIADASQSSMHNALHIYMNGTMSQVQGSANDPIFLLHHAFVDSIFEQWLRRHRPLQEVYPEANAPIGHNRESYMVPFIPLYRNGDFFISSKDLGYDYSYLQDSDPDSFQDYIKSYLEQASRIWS
Test: L-Dopa oxidase activity of hTyr, dose-response profiles (MBTH assay)
Type: biochemical
Design: A truncated, His-tagged form of hTyr (hTyr-DHis) was expressed in HEK 293 cells; His tag; made in house; host or cells: HEK 293 cells
Conditions: comparison of EC50 values
Protocol: A truncated, His-tagged form of hTyr (hTyr-DHis) was expressed in HEK 293 cells and purified by metal affinity chromatography on Ni^2+-Sepharose as described by Cordes et al..
The L-Dopa oxidase activity of hTyr was assayed by a modification of the method of Winder and Harris. In this assay, the reaction product, L-dopaquinone, is trapped by MBTH (3-methyl-2-benzothiazoline hydrazone) to yield a stable pink dye that can be quantified at 490 nm. Reaction mixtures in 100 mM phosphate buffer, pH 7.0, were set up in microtiter plates together with appropriate blanks to account for nonenzymatic oxidation of substrate and product. After thermal equilibration at 37 °C for 10 min, the reactions were started by adding enzyme and monitored for 10–20 min at 490 nm. Absorption values were read at 15 s intervals and digitally stored for later analysis. Dose-response curves were obtained by testing various concentrations of each inhibitor in triplicate at a fixed substrate (L-Dopa) concentration of 1 mM.

inhibition of hTyr, result in words	Structure (SMILES)
mediates efficient inhibition	Oc1ccc(-c2csc(Nc3ncccn3)n2)c(O)c1 [W311]
markedly impair inhibition	Oc1ccc(-c2csc(NCCc3ccccc3)n2)c(O)c1 [W496]
markedly impair inhibition	Cc1cc(C)cc(Nc2nc(-c3ccc(O)cc3O)cs2)c1 [W537]
strongly	CN(C(=O)C1CCCCC1)c1nc(-c2ccc(O)cc2O)cs1 [W605]
only moderately increases EC50	O=C(NC1CCCCC1)c1nc(-c2ccc(O)cc2O)cs1 [W607]
abolished inhibition altogether	Cc1sc(NC(=O)C2CCCCC2)nc1-c1ccc(O)cc1O [W625]
markedly impaired inhibition	CCCCc1ccc(O)c(C)c1O [W639]
markedly impair inhibition	CC(C)(C)c1ccc(C(=O)Nc2nc(-c3ccc(O)cc3O)cs2)cc1 [W669]
abolished inhibition altogether	CCCC(=O)Nc1nc(-c2cc(CCC)c(O)cc2O)cs1 [W681]
abolishes activity	O=C(NC1CCCCC1)c1csc(-c2ccc(O)cc2O)n1 [W701]
markedly impaired inhibition	OCCc1ccc(O)cc1O [W785]

Structure (SMILES)	inhibition of hTyr, result in words
CN(c1nc(-c2ccc(O)cc2O)cs1)C1CCCCC1 [W646]	only moderately reduced inhibitory activity

Same assay, conditions: dopa oxidase activity of hTyr, 1 mM L-Dopa, phosphate buffer pH 7.0, 37 °C; values above 3 mM given as >3000

EC50 [µM]	Structure (SMILES)
21 ± 4	CCCCc1ccc(O)cc1O [W039, 4-butylresorcinol, reference compound]
93 ± 21	CCCCCCc1ccc(O)cc1O [W072, 4-hexylresorcinol, reference compound]
> 3000	Oc1cccc(O)c1 [W089, resorcinol]
3.2 ± 0.1	Oc1ccc(-c2csc(Nc3ncccn3)n2)c(O)c1 [W311]
33 ± 1	CNc1nc(-c2ccc(O)cc2O)cs1 [W366]
10 ± 1	Oc1ccc(-c2csc(Nc3ccccc3)n2)c(O)c1 [W367]
19 ± 1	Oc1ccc(-c2csc(Nc3ncccn3)n2)cc1 [W452]
> 3000	CCC(=O)Nc1nc(-c2ccc(O)cc2F)cs1 [W480]
51 ± 2	Nc1nc(-c2ccc(O)cc2O)cs1 [W495, 4-(2-amino-1,3-thiazol-4-yl) resorcinol]
140 ± 6	Oc1ccc(-c2csc(NCCc3ccccc3)n2)c(O)c1 [W496]
2.5 ± 0.1	O=C(Nc1nc(-c2ccc(O)cc2O)cs1)c1ccccc1 [W498]
2.6 ± 0.1	O=C(O)c1ccc(Nc2nc(-c3ccc(O)cc3O)cs2)cc1 [W529]
6.2 ± 0.2	CC(C)Nc1nc(-c2ccc(O)cc2O)cs1 [W533]
25 ± 1	CC(C)(C)Nc1nc(-c2ccc(O)cc2O)cs1 [W534]
160 ± 2	Cc1cc(C)cc(Nc2nc(-c3ccc(O)cc3O)cs2)c1 [W537]
5.6 ± 1.4	CCCNc1nc(-c2ccc(O)cc2O)cs1 [W538]
> 3000	Oc1ccccc1-c1csc(Nc2ncccn2)n1 [W539]
9.8 ± 0.3	Oc1ccc(Nc2nc(-c3ccc(O)cc3O)cs2)cc1 [W542]
3.2 ± 0.6	CC(=O)Nc1nc(-c2ccc(O)cc2O)cs1 [W547]
4.6 ± 0.2	O=C(Nc1nc(-c2ccc(O)cc2O)cs1)C1CCCCC1 [W548]
> 3000	Oc1cccc(-c2csc(Nc3ncccn3)n2)c1O [W568]
3.5 ± 0.1	O=C(O)c1ccc(Nc2nc(-c3ccc(O)cc3O)cs2)cc1O [W570]
3.5 ± 0.5	CCCC(=O)Nc1nc(-c2ccc(O)cc2O)cs1 [W577]

EC50 [µM]	Structure (SMILES)
1400 ± 160	CN(C(=O)C1CCCCC1)c1nc(-c2ccc(O)cc2O)cs1 [W605]
56 ± 3	O=C(NC1CCCCC1)c1nc(-c2ccc(O)cc2O)cs1 [W607]
1.6 ± 0.4	O=C(Nc1nc(-c2ccc(O)cc2O)cs1)c1ccc(CO)cc1 [W619]
> 3000	CCCNc1nc(-c2cc(O)cc(O)c2)cs1 [W624]
> 3000	Cc1sc(NC(=O)C2CCCCC2)nc1-c1ccc(O)cc1O [W625]
1.1 ± 0.1	CC(C)C(=O)Nc1nc(-c2ccc(O)cc2O)cs1 [W630, Thiamidol]
> 3000	O=C(Nc1cccc(-c2ccc(O)cc2O)c1)C1CCCCC1 [W632]
750 ± 60	CC(=O)Nc1nc(-c2ccc(O)cc2O)c[nH]1 [W633]
220 ± 10	CCCCc1ccc(O)c(C)c1O [W639]
40 ± 2	CN(c1nc(-c2ccc(O)cc2O)cs1)C1CCCCC1 [W646]
81 ± 5	CC(C)(C)c1ccc(C(=O)Nc2nc(-c3ccc(O)cc3O)cs2)cc1 [W669]
3.2 ± 0.2	CC(C)(O)c1ccc(C(=O)Nc2nc(-c3ccc(O)cc3O)cs2)cc1 [W680]
> 3000	CCCC(=O)Nc1nc(-c2cc(CCC)c(O)cc2O)cs1 [W681]
1.4 ± 0.1	CC(C)(C)C(=O)Nc1nc(-c2ccc(O)cc2O)cs1 [W687]
60 ± 2	CCCCCCNc1nc(-c2ccc(O)cc2O)cs1 [W688]
6.9 ± 0.2	OCCCCCCNc1nc(-c2ccc(O)cc2O)cs1 [W692]
5.7 ± 0.2	OCc1ccc(Nc2nc(-c3ccc(O)cc3O)cs2)cc1 [W693]
16 ± 1	Oc1ccc(-c2csc(NC3CCCCC3)n2)c(O)c1 [W694]
15 ± 1	CCCCCCC(=O)Nc1nc(-c2ccc(O)cc2O)cs1 [W695]
6.5 ± 0.2	O=C(Cc1ccc(CO)cc1)Nc1nc(-c2ccc(O)cc2O)cs1 [W696]
> 3000	O=C(NC1CCCCC1)c1csc(-c2ccc(O)cc2O)n1 [W701]
560 ± 90	OCCc1ccc(O)cc1O [W785]

Same assay, conditions: versus the corresponding thiazole compound (W547, W548)

factor by which inhibitory activity is impaired when thiazole is replaced by another ring	Structure (SMILES)
at least 200	O=C(Nc1cccc(-c2ccc(O)cc2O)c1)C1CCCCC1 [W632]
at least 200	CC(=O)Nc1nc(-c2ccc(O)cc2O)c[nH]1 [W633]

Molecular target: T1, human tyrosinase (hTyr)
Test: not given
Conditions: in vitro; cited from earlier work

Structure (SMILES)	hTyr inhibition compared with thiazolyl resorcinols, in words
OC[C@H]1O[C@@H](Oc2ccc(O)cc2)[C@H](O)[C@@H](O)[C@@H]1O [arbutin]	clearly inferior to thiazolyl resorcinols
Oc1ccc(O)cc1 [hydroquinone]	clearly inferior to thiazolyl resorcinols
